Data taken from patent US20230417736A1, “MONITORING MEMBRANE PROTEIN TRAFFICKING FOR DRUG DISCOVERY AND DRUG DEVELOPMENT” (UNIVERSITY OF HOUSTON SYSTEM, priority 2020, published 2023).

Target: T1, human β2AR (Homo sapiens, UniProt P07550)
T1 construct: expressed in transfected cells
Test: GPCR internalization assay using NanoBiT technology (β2AR-SmBiT with LgBiT-FYVE, early endosomes)
Assay type: cell-based
Conditions: for Internalization of GPCRs (luminescent signal) in the presence of endocytosis inhibitors: 10 μM of endocytosis inhibitors, cells pretreated, then ligand stimulation
Description: Applicant initially focused on studying the different internalization rates of class A G-protein coupled receptors (GPCRs). For this, Applicant first established a set of GPCRs involved in a wide variety of physiological functions and diseases such as Galanin (GAL receptors), Chemokine receptors (CCR), and β-adrenergic receptors ((βAR). Applicant devised a strategy to monitor how the GPCR bound to its corresponding ligand is removed from the cell surface, subsequently localized in early endosomes, and then finally recycled into the cell membrane. To accomplish this, Applicant covalently linked a small fragment of NLuc (SmBiT) to the C-terminal of the receptor, where a flexible linker is located between the two proteins (FIGS. 9-10). This linker was designed to be composed mainly of glycine and alanine amino acids to provide flexibility and not to alter the pharmacological properties of the native receptor (FIGS. 2A-2B).
FYVE domains bind phosphatidylinositol 3-phosphate from early endosomes, in a manner that is dependent on its metal ion coordination and basic amino acids. This FYVE domain inserts into cell membranes in a pH-dependent manner, where it is composed of two small beta hairpins (or zinc knuckles) and followed by an alpha helix. Additionally, the FYVE finger binds two zinc ions where this FYVE finger has eight potential zinc coordinating cysteine positions and is characterized by having basic amino acids around the cysteines. To achieve this, the gene of the FYVE domain of the human Endofin (residues from Q739 to K806) was synthesized and covalently attached by molecular cloning into a large fragment of NLuc (LgBiT) at the N-termini (FIGS. 2A-2B).
The ability to monitor internalization in response to ligand stimulation was assessed in HEK293 cells expressing the corresponding human receptor. In the case of GPCRs, the assay was performed using the corresponding endogenous ligands (i.e., epinephrine).
HEK293 cells were maintained in Dulbecco's modified Eagle's medium (DMEM) supplemented with 10% fetal bovine serum (FBS), 100 U/ml penicillin G, and […] streptomycin (Invitrogen; Carlsbad, CA, USA). At 1 day before transfection, the cells were seeded in 96-well plates at a density of 2.5×10^4 cells per well. […] After a 10 minute incubation, 25 μl substrate (furimazine) was added, and once every minute subsequent luminescence measurements were taken for 5-10 minutes for signal stabilization. A total of 10 μl of ligand, antibody, or viral suspension was then added to each well and luminescence measurements were recorded immediately and once every minute for 1-3 hours (Synergy 2 Multi-Mode Microplate Reader BioTek, Winooski, VT, USA).

T1 sequence (P07550 whole entry): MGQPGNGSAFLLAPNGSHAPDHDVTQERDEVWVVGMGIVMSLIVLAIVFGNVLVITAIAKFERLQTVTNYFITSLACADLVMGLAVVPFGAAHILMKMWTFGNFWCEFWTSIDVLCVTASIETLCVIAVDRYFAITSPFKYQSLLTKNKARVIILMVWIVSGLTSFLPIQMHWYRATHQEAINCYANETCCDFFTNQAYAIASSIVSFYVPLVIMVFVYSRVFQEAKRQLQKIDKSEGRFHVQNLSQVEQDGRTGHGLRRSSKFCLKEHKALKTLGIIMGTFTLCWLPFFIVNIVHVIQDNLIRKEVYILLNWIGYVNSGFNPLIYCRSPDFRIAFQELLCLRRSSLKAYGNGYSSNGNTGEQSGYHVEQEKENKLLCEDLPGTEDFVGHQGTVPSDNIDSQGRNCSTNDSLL

Row | Structure (SMILES) | Blue luminescent signal (β2AR translocation into early endosomes) in response to the agonist (different concentrations of epinephrine) | Internalization of GPCRs (luminescent signal) in the presence of endocytosis inhibitors
1 | CNC[C@H](O)c1ccc(O)c(O)c1 [epinephrine] | increased the blue luminescent signal in a concentration-dependent manner | 
2 | O=C1N=C(NS(=O)(=O)c2cccc3ccccc23)SC1=Cc1ccc(Br)cc1 [PiTStop] |  | inhibited
3 | O=C(N/N=C/c1ccc(O)c(O)c1)c1cc2ccccc2cc1O [Dynasore] |  | inhibited
4 | Cn1c(CNc2cccc(C(=O)NCc3ccccc3C(F)(F)F)c2)nnc1-c1ccncc1 [Cmpd101] |  | inhibited
